Measured values reported in patent US7989494B2, “Polymorphs of N-hydroxy-3-[4-[[[2-(2-methyl-1H-indol-3-yl)ethyl]amino]methyl]phenyl]-2E-2-propenamide” (Novartis AG, priority 2006, dated 2011).
Where a name gives a salt, the structure may show the parent alone.

Legend:
Type in all cases: physicochemical
[1] = Solubility in organic solvents
[2] = Hygroscopicity (descriptive)
[3] = Sorption-desorption isotherms, VTI humidity balance; conditions: for Sorption: 25° C., first sorption cycle; for Desorption: in % (unit assumed)
Experimental: Sorption-desorption isotherms were recorded by a VTI humidity balance. The salts of (N-hydroxy-3-[4-[[[2-(2-methyl-1H-indol-3-yl)ethyl]amino]methyl]phenyl]-2E-2-propenamide were first subjected to a drying step (25° C., r.h. below 2%, 2 hours) and then to a sorption-desorption-sorption sequence, with each RH % step retained for 3 hours. The free base was kept below 2% r.h. for several hours, and thus was completely dehydrated after the drying step. Only the data of the first sorption cycle are given in the table, since, in all cases, the two sorption cycles were very similar.

[4] = Equilibration in solvents and aqueous media, solid form by XRPD
Aqueous solubility = conditions: water
Intrinsic dissolution = experiment: Intrinsic dissolution

Which results are given for `Cc1[nH]c2ccccc2c1CCNCc1ccc(/C=C/C(=O)NO)cc1` [Form A of the mesylate salt, N-hydroxy-3-[4-[[[2-(2-methyl-1H-indol-3-yl)ethyl]amino]methyl]phenyl]-2E-2-propenamide]?
solubility in methanol and ethanol ([1]; methanol and ethanol): high solubility; solubility in other common / remaining organic solvents ([1]; other common organic solvents): appreciable solubility; hygroscopicity [2]: very slightly hygroscopic; moisture at 85% r.h. ([3]; 85% r.h.): less than 0.35%; Sorption ([3]; Sample RH % 1.5): 0%; Sorption ([3]; Sample RH % 5): 0.03%; Desorption ([3]; Sample RH % 5): −0.03; Sorption ([3]; Sample RH % 25): 0.1%; Desorption ([3]; Sample RH % 25): 0.07; Sorption ([3]; Sample RH % 50): 0.16%; Desorption ([3]; Sample RH % 50): 0.16; Sorption ([3]; Sample RH % 75): 0.23%; Desorption ([3]; Sample RH % 75): 0.25; Sorption ([3]; Sample RH % 85): 0.31%; Desorption ([3]; Sample RH % 85): 0.33; Sorption ([3]; Sample RH % 95): 0.82%; Desorption ([3]; Sample RH % 95): 0.82; XRPD form after equilibration ([4]; 0.1 N HCl): hydrochloride salt; XRPD form after equilibration ([4]; 2-Propanol): No change; XRPD form after equilibration ([4]; Acetone): No change; XRPD form after equilibration ([4]; Ethanol): No change; XRPD form after equilibration ([4]; Ethyl Acetate): No change; XRPD form after equilibration ([4]; Water, listed as Mesylate): Changed to new; XRPD form after equilibration ([4]; pH = 6.8 buffer (phosphate)): free base; XRPD form after equilibration ([4]; water): converts to form B; aqueous solubility (Aqueous solubility): 12.9 mg/mL; intrinsic dissolution (Intrinsic dissolution): high
